Data from US20250235429A1, “TREATMENT OF DISEASES VIA ADMINISTRATION OF BUNTANETAP AND AN ANTIDIABETIC AGENT” (ANNOVIS BIO, INC., priority 2024, published 2025).
“Also recorded” adds a separate entry of the source.

Experiments:
[1] = tested on: hippocampal slices APP/PS1 transgenic mice; test: Electrophysiological study: long-term potentiation (LTP) in hippocampal slices; assay type: in vivo
Method: (§1) Animals: Heterozygous double transgenic mice expressing both human APP (K670N:M671L) and human PS1 (M146L) (line 6.2) and their wild-type non-transgenic littermates, both males and females, were used for these experiments. They were obtained by a breeding colony maintained at the animal facility of Columbia University. They were genotyped through PCR on tail samples. Animals were injected i.p. from the age of […] for 1 month prior to starting behavioral assessment which lasted for 2 weeks during which treatment continued. Behavioral assessment examined spatial and associative memory. Finally, mice were sacrificed for electrophysiological assessment of synaptic function.
Mice were coded to blind investigators with respect to genotype and treatment. Results were expressed with Standard Error of the Mean (SEM). Level of significance was set for p<0.05. Results were analyzed by ANOVA analysis with post-hoc correction with the combination or genotype as main effect. Experiments were designed in a balanced fashion, and mice were trained and tested at each of the different conditions in 3 or 4 separate experiments.
Mice were i.p. injected with the drug from the age of 8 weeks prior to plaque appearance until euthanasia for collecting slices at the age of 14-16 weeks. The treatment with Buntanetap was daily, whereas the treatment with dulaglutide was twice a week.
Electrophysiological analysis was performed on 400 μm hippocampal slices, cut with a tissue chopper and maintained in an interface chamber at 29° C. for 90 min prior to recording. Briefly, CA1 fEPSPs were recorded by placing both the stimulating and the recording electrodes in CA1 stratum radiatum. Basal synaptic transmission was assayed, either by plotting the stimulus voltages against slopes of fEPSP, or by plotting the peak amplitude of the fiber volley against the slope of the fEPSP. For LTP experiments, a 15 min baseline was recorded every min at an intensity that evokes a response ˜35% of the maximum evoked response. LTP was induced using θ-burst stimulation (4 pulses at 100 Hz, with the bursts repeated at 5 Hz and each tetanus including 3 ten-burst trains separated by 15 see). Data was subjected to statistical analyses to determine the effects of combination on inhibiting synaptic dysfunction.

APP/PS1 transgenic mice = test: Contextual fear conditioning (FC), associative memory; assay type: in vivo; details: Buntanetap 1 mg/Kg and/or dulaglutide 0.1 mg/Kg
Method: as §1
Mice were coded to blind investigators with respect to genotype and treatment. Results were expressed with Standard Error of the Mean (SEM). […] Results were analyzed by ANOVA analysis with post-hoc correction with the combination or genotype as main effect. […]
The combination effect on associative memory was assessed through fear conditioning (FC). […] Freezing behavior, defined as the absence of movements except for that needed for breathing, was scored using Noldus software. Contextual fear learning, a type of memory for which hippocampal function is indispensable, was evaluated 24 hrs after training by measuring freezing responses for 5 min in the same chamber where the mice have been trained. […]

[2] = cited from earlier work
[3] = tested on: APP, Tau, and aSYN in the cerebrospinal fluid (CSF) of MCI subjects; details: cited from earlier work
[4] = tested on: early AD patients and early PD patients; details: cited from earlier work
[5] = tested on: APP in SH-SY-5Y human neuroblastoma cells; details: cited from earlier work
APP and its fragments = details: APP/PS1 transgenic mice; cited from earlier work
tau [6] = details: unpublished observation, Peter Davies Laboratory; cited from earlier work
tau [7] = details: Human tau mice; unpublished observation; cited from earlier work
aSYN = details: transgenic Parkinson's animals, in the brain and in the gut; cited from earlier work
[8] = tested on: APP/PS1 transgenic (tg) mouse model of AD; details: cited from earlier work
rat acute glaucoma model = details: cited from earlier work
[9] = tested on: traumatic brain injury rats; details: cited from earlier work
Huntingtin Protein = details: through Translational Suppression; cited from earlier work
[10] = tested on: APP, Tau, and aSYN in the cerebrospinal fluid (CSF) of MCI subjects; test: CSF biomarkers in MCI subjects before and after 10 days of buntanetap (proof of mechanism); details: mildly cognitive impaired patients, 10 days of administration (FIG. 3)

Compound: CN1CC[C@]2(C)c3cc(OC(=O)Nc4ccccc4)ccc3N(C)C12 (stereo partly drawn) [Buntanetap, (3aR)-1,3a,8-trimethyl-1,2,3,3a,8,8a-hexahydropyrrolo[2,3-b]indol-5-yl phenylcarbamate]
- % Improvement (Residual Potential) ([1]; APP/PS1, Buntanetap 1 mg/kg): 4.8%
- Residual Potential (mean) ([1]; APP/PS1, Buntanetap 1 mg/kg i.p. daily): 141.55
- Residual Potential (mean) ([1]; APP/PS1, Buntanetap 10 mg/kg i.p. daily): 213.56
- % Improvement (Residual Potential) ([1]; APP/PS1, Buntanetap 10 mg/kg, 100% = wt veh minus APP/PS1 veh): 90.5%
- impairment of synaptic plasticity measured through Long-term potentiation (LTP) ([1]; APP/PS1 mice, Buntanetap 1 mg/Kg and/or dulaglutide 0.1 mg/Kg): did not ameliorate
- impairment of associative memory measured through contextual fear conditioning (FC) (APP/PS1 transgenic mice): did not ameliorate
- half-life in CSF ([2]; MCI subjects): > 12 h
- tolerability ([2]; doses up to 4×60 mg daily X 10 days): well tolerated
- concentration in brain relative to plasma ([2]; in vivo): about 8 times
- terminal half-life ([2]; plasma, all doses, biphasic clearance): 4.3 to 4.7 h
- levels of APP, Tau, and aSYN in the cerebrospinal fluid (CSF) ([3]; MCI subjects, 4×60 mg/day): normalized
- CSF A342 ([3]; MCI subjects): trend to lower
- CSF levels of sAPPa, sAPPP, t-tau, p-tau, and specific inflammatory markers ([3]; MCI subjects): significantly lowered
- inflammation ([3]; human CSF of MCI subjects): lowered
- levels of neurotoxic proteins and inflammatory factors (biomarker data) ([4]; AD and PD cohorts): trend in lowering
- axonal and synaptic function ([4]; AD and PD patients): improved
- blood brain barrier crossing ([4]; AD and PD patients): crossed the blood brain barrier
- inflammatory markers ([4]; AD and PD patients): reduced
- neurotoxic protein biomarkers ([4]; AD and PD patients): reduced
- ADAS-Cog11 and WAIS coding (psychometric tests) ([4]; AD patients, 80 mg QD): statistically significant improvements
- cognition as measured by ADAS-Cog11 and WAIS coding speed ([4]; AD patients, statistical significance versus baseline at 80 mg dose but not placebo): improved
- MDS-UPDRS and WAIS coding (psychometric tests) ([4]; PD patients, 5-80 mg QD): statistically significant improvements
- motor function as measured by MDS-UPDRS (Part II, III, IV and total) ([4]; PD patients, all doses, maximum improvement for 10 & 20 mg): improved
- WAIS speed and accuracy ([4]; PD patients, significant versus placebo in 5 mg, 20 mg and 80 mg arms): improved
- safety and tolerability ([4]; doses up to 80 mg in both AD and PD patients): well tolerated
- Cmax and AUC ([4]; plasma, without evidence for a plateau up to 80 mg QD): increased with dose
- levels of APP in vitro [5]: lowers
- levels of APP and all its fragments (APP and its fragments): lowers
- tau in vitro (tau [6]): lowers
- tau in vivo (tau [7]): lowers
- aSYN in vivo (aSYN): lowers
- memory and learning ([8]; APP/PS1 transgenic (tg) mouse model of AD): Restored
- impaired synaptic transmission ([8]; hippocampus of APP/PS1 tg mice): Normalized
- retina (rat acute glaucoma model; acute glaucoma): Preserved
- nerve cells (rat acute glaucoma model; rat acute glaucoma model): protected
- inflammation ([9]; rat brain after TBI): lowered
- impaired synaptic transmission ([9]; rat striatum after traumatic brain injury (TBI)): Normalized
- nerve cells ([9]; rat substantia Ingra after TBI): protected
- memory and learning ([9]; traumatic brain injury rats): Preserved
- levels of Huntingtin Protein (Huntingtin Protein): reduced
- APP/Abeta, tau/phospho-tau and alpha-synuclein in the spinal fluid [10]: reduction; also recorded: normalized
